Test system: MiaPaCa2 pancreatic cancer cell line
Assay: Oligonucleotide microarray gene expression after TSA (1 μM, 24 h) vs mock
Assay type: cell-based, human
Protocol: Mock-treated cells were cultured with the equivalent volume of PBS alone.
Total RNA was isolated from cultured cells using TRIZOL reagent (invitrogen, Carlsbad, Calif.) and purified using RNeasy Mini Kit (Qiagen, Valencia, Calif.). First- and second-stranded cDNA was synthesized from 10 μg of total RNA using 17-dT) primer (Genset Corp., La Jolla, Calif.) and Superscript Choice system (Invitrogen). Labeled cRNA was synthesized from the purified cDNA by in vitro transcription reaction using the BioArray High Yield RNA Transcript Labeling Kit (Enzo Diagnostics, Inc., Farmingdale, N.Y.) at 37° C. for 6 h. The cRNA was fragmented at 94° C. for 35 min. in a fragmentation buffer [40 mM Tris-acetate @ pH 8.1, 100 mM potassium acestate, and 30 mM magnesium acetate]. The fragmented cRNA was then hybridized to the Human Genome U133A chips (Affymetrix, Santa Clara, Calif.) with 18462 unique gene/EST transcripts at 45° C. for 16 h. The washing and staining procedure was performed in the Affymetrix Fluidics Station according to the manufacturer's instructions. The probes were then scanned using a laser scanner, and signal intensity for each transcript (background-subtracted and adjusted for noise) was calculated using Microarray Suite Software 5.0 (Affymetrix).
Fold change analysis of signal intensities obtained from oligonucleotide microarrays between the two treatment groups was performed using Data Mining software (Afrymetrix).

CC(/C=C/C(=O)NO)=C\[C@@H](C)C(=O)c1ccc(N(C)C)cc1 [TSA, trichostatin A]
Fold-change after TSA treatment (ADM, MiaPaCa2): 5.02 fold | Fold-change after TSA treatment (ANGPT1, MiaPaCa2): 1.75 fold | Fold-change after TSA treatment (AREG, MiaPaCa2): 3.97 fold | Fold-change after TSA treatment (ATF3, MiaPaCa2): 2.14 fold | Fold-change after TSA treatment (BIK, MiaPaCa2): 10.05 fold | Fold-change after TSA treatment (CACNA1G, MiaPaCa2): 4.61 fold | Fold-change after TSA treatment (CAPN5, MiaPaCa2): 5.18 fold | Fold-change after TSA treatment (CDH8, MiaPaCa2): −1.29 fold | Fold-change after TSA treatment (CDKN1C, MiaPaCa2): 13.22 fold | Fold-change after TSA treatment (CGR11, MiaPaCa2): 3.22 fold | Fold-change after TSA treatment (CHES1, MiaPaCa2): −1.03 fold | Fold-change after TSA treatment (CHFR, MiaPaCa2): 1.27 fold | Fold-change after TSA treatment (CLDN15, MiaPaCa2): 1.13 fold | Fold-change after TSA treatment (EDR1, MiaPaCa2): 5.91 fold | Fold-change after TSA treatment (EGR4, MiaPaCa2): 8.67 fold | Fold-change after TSA treatment (EREG, MiaPaCa2): 1.7 fold | Fold-change after TSA treatment (GADD45B, MiaPaCa2): 5.06 fold | Fold-change after TSA treatment (GAGE1, MiaPaCa2): 0.53 fold | Fold-change after TSA treatment (GAGE2, MiaPaCa2): 1.31 fold | Fold-change after TSA treatment (GAGE3, MiaPaCa2): −2.68 fold | Fold-change after TSA treatment (GAGE4, MiaPaCa2): 1.32 fold | Fold-change after TSA treatment (GAGE6, MiaPaCa2): −2.17 fold | Fold-change after TSA treatment (GAGE7B, MiaPaCa2): −1.76 fold | Fold-change after TSA treatment (H1 historic family, member 2 (BC002649), MiaPaCa2): 4.16 fold | Fold-change after TSA treatment (HEP27, MiaPaCa2): 26.21 fold | Fold-change after TSA treatment (HMOX1, MiaPaCa2): 5.25 fold | Fold-change after TSA treatment (HPSE, MiaPaCa2): 14.09 fold | Fold-change after TSA treatment (ID2, MiaPaCa2): 2.27 fold | Fold-change after TSA treatment (ING1, MiaPaCa2): 13.25 fold | Fold-change after TSA treatment (KLK12, MiaPaCa2): 2.91 fold | Fold-change after TSA treatment (MAGE1, MiaPaCa2): 5.17 fold | Fold-change after TSA treatment (MBD1, MiaPaCa2): 1.28 fold | Fold-change after TSA treatment (MMP1, MiaPaCa2): 1.01 fold | transcripts with marked induction (MiaPaCa2): 207 transcripts | transcripts with marked induction, share of transcripts analyzed (MiaPaCa2): 1.1% | Fold-change after TSA treatment (NGFR, MiaPaCa2): 13.46 fold | Fold-change after TSA treatment (NOTCH3, MiaPaCa2): −1.04 fold | Fold-change after TSA treatment (P-glycoprotein (mdr1), MiaPaCa2): 2.74 fold | Fold-change after TSA treatment (STC1, MiaPaCa2): 2.73 fold | Fold-change after TSA treatment (UCPH, MiaPaCa2): 6.39 fold | Fold-change after TSA treatment (ULBP2, MiaPaCa2): 4.09 fold | Fold-change after TSA treatment (WNT4, MiaPaCa2): 3.36 fold | Fold-change after TSA treatment (candidate tumor suppressor gene 21 protein (AF040708), MiaPaCa2): 1.15 fold | Fold-change after TSA treatment (connective tissue growth factor (M92934), MiaPaCa2): 4.28 fold | Fold-change after TSA treatment (hemoglobin, alpha 1 (HBAI), MiaPaCa2): 77.77 fold | Fold-change after TSA treatment (interleukin 8, MiaPaCa2): 1.36 fold | Fold-change after TSA treatment (period homolog 1 (PERI), MiaPaCa2): 1.28 fold | Fold-change after TSA treatment (prostate differentiation factor (AF003934), MiaPaCa2): 16.4 fold | Fold-change after TSA treatment (protease inhibitor 12 (neuroserpin) (SERPINU), MiaPaCa2): 44.44 fold | Fold-change after TSA treatment (synovial sarcoma, X breakpoint 1 (BC001003), MiaPaCa2): 1.5 fold | Fold-change after TSA treatment (tissue factor pathway inhibitor-2 (L27624), MiaPaCa2): −0.68 fold

From patent US8785614B2, “Aberrantly methylated genes in pancreatic cancer” (The Johns Hopkins University, priority 2003, dated 2014)
